Data as given in patent US20150087627A1, “COMBINATION OF KINASE INHIBITORS AND USES THEREOF” (Intellikine LLC, priority 2011, published 2015).

Legend:
Format in all cases: biochemical
PI3K β (p110β/p85α) = biological target: T1, PI3K β (p110β/p85α) (Homo sapiens, UniProt P42338); assay: PI 3-Kinase (human) HTRF assay, PI3K β; conditions: read-out: PI3K β IC50
T1 construct: purchased Upstate / Millipore Corporation

PI3K α (p110α/p85α) = biological target: T2, PI3K α (p110α/p85α) (Homo sapiens, UniProt P42336); assay: PI 3-Kinase (human) HTRF assay, PI3K α; conditions: read-out: PI3K α IC50
T2 construct: purchased Upstate / Millipore Corporation
T2 sequence (P42336 whole entry): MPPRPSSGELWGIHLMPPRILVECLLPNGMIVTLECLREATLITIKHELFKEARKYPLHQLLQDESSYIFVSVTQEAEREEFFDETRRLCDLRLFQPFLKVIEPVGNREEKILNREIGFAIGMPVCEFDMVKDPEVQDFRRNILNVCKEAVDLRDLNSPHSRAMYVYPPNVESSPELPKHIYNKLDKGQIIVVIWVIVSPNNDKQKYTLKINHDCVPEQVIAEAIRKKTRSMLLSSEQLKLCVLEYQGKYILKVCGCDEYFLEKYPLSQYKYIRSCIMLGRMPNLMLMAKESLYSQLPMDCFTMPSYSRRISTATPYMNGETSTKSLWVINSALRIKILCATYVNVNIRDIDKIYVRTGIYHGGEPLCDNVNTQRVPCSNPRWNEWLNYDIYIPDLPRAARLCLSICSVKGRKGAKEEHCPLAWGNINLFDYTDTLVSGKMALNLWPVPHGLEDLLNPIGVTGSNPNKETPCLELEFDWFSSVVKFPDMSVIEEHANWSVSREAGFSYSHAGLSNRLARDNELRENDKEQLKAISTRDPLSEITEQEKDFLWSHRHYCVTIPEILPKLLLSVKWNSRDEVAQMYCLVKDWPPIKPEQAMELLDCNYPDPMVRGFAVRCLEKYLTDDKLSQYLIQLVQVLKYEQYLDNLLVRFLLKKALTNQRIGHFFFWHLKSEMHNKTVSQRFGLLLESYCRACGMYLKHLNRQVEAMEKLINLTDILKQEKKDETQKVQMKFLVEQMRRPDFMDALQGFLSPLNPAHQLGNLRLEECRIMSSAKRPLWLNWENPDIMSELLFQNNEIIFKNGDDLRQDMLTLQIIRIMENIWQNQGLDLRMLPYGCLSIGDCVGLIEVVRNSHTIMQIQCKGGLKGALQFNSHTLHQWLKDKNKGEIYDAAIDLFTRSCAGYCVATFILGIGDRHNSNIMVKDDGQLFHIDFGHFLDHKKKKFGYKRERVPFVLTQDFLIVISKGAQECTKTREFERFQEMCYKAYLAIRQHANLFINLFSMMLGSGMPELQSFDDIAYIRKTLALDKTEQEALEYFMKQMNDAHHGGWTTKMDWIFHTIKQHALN
T2 sequence (P27986 whole entry partner): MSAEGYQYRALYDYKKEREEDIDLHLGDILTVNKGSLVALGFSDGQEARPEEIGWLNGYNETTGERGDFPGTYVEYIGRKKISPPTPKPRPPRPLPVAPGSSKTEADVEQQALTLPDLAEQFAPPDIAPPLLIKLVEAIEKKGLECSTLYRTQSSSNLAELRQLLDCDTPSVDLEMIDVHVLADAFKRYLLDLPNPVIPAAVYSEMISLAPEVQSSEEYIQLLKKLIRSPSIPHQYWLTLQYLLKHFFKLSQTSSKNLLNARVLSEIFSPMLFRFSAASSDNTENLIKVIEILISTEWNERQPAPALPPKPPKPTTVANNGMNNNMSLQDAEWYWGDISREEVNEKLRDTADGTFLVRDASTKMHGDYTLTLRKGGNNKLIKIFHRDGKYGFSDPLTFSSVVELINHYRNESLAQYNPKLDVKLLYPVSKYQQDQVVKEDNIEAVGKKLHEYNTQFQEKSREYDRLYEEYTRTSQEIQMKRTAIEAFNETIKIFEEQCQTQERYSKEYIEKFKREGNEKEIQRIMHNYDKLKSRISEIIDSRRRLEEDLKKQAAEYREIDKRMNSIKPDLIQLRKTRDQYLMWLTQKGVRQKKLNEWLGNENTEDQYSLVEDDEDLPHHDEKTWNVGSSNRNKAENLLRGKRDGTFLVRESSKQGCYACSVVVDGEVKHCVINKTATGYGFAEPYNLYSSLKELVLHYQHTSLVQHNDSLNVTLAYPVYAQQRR

PI3K γ (p110γ) = biological target: T3, PI3K γ (p110γ) (Homo sapiens, UniProt P48736); assay: PI 3-Kinase (human) HTRF assay, PI3K γ; conditions: read-out: PI3K γ IC50
T3 construct: purchased Upstate / Millipore Corporation
T3 sequence (P48736 whole entry): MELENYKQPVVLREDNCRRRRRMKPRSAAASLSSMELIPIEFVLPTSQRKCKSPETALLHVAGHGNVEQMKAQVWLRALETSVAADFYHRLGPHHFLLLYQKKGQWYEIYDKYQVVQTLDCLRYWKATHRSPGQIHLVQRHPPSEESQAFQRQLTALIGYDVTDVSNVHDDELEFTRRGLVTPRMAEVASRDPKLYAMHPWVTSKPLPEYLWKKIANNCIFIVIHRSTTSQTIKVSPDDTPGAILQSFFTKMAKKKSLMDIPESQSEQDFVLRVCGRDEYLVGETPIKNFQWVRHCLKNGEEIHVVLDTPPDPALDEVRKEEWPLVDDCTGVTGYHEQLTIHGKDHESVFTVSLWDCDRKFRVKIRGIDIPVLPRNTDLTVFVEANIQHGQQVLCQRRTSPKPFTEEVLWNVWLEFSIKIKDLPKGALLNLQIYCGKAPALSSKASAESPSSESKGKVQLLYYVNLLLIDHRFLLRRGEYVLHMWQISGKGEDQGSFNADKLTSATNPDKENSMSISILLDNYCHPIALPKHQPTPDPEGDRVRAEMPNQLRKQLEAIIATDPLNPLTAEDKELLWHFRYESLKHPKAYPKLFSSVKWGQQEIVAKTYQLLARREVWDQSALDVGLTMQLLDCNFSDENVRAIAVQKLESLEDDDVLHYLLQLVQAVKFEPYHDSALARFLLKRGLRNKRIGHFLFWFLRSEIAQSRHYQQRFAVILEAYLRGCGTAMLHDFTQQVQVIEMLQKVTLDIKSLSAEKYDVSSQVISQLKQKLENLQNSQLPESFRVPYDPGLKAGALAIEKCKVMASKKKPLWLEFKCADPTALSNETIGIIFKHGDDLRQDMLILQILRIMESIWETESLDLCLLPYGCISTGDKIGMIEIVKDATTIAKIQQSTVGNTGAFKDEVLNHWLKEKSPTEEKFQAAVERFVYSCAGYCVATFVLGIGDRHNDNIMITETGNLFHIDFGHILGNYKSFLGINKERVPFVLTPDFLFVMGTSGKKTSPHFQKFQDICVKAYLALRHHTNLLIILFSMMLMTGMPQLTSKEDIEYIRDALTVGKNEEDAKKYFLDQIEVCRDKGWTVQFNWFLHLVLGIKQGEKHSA

PI3K δ = biological target: T4, PI3K δ (Homo sapiens, UniProt O00329); assay: PI 3-Kinase (human) HTRF assay, PI3K δ; conditions: read-out: PI3K δ IC50
T4 construct: purchased Upstate / Millipore Corporation
T4 sequence (O00329 whole entry): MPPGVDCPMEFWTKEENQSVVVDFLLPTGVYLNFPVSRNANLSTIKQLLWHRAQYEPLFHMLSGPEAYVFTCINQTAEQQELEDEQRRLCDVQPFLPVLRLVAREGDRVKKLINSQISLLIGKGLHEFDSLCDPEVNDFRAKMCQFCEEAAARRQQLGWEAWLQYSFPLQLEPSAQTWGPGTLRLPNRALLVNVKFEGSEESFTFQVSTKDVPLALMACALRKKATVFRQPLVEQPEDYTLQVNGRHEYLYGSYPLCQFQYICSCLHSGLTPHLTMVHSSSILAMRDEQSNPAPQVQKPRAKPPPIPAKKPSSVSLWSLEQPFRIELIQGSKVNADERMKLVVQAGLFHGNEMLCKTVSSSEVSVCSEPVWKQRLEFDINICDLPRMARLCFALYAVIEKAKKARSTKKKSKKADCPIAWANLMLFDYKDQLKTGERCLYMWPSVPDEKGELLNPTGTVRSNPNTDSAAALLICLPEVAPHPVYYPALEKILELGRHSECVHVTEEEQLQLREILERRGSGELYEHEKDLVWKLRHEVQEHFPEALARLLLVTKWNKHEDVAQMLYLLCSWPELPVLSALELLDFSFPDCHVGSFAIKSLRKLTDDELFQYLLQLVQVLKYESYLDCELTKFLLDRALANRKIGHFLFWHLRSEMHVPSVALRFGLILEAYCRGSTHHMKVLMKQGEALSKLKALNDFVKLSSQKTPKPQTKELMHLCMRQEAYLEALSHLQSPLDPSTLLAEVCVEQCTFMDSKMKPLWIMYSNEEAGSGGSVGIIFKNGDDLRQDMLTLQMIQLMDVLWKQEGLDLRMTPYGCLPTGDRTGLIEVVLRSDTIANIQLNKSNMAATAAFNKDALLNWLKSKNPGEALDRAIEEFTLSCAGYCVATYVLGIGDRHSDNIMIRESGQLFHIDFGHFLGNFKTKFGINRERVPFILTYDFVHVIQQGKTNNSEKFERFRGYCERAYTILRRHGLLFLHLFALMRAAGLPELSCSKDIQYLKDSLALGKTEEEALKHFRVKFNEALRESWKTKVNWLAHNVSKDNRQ
T4 sequence (P27986 whole entry partner): as the sequence (P27986 whole entry partner) above

T1 sequence (P42338 whole entry): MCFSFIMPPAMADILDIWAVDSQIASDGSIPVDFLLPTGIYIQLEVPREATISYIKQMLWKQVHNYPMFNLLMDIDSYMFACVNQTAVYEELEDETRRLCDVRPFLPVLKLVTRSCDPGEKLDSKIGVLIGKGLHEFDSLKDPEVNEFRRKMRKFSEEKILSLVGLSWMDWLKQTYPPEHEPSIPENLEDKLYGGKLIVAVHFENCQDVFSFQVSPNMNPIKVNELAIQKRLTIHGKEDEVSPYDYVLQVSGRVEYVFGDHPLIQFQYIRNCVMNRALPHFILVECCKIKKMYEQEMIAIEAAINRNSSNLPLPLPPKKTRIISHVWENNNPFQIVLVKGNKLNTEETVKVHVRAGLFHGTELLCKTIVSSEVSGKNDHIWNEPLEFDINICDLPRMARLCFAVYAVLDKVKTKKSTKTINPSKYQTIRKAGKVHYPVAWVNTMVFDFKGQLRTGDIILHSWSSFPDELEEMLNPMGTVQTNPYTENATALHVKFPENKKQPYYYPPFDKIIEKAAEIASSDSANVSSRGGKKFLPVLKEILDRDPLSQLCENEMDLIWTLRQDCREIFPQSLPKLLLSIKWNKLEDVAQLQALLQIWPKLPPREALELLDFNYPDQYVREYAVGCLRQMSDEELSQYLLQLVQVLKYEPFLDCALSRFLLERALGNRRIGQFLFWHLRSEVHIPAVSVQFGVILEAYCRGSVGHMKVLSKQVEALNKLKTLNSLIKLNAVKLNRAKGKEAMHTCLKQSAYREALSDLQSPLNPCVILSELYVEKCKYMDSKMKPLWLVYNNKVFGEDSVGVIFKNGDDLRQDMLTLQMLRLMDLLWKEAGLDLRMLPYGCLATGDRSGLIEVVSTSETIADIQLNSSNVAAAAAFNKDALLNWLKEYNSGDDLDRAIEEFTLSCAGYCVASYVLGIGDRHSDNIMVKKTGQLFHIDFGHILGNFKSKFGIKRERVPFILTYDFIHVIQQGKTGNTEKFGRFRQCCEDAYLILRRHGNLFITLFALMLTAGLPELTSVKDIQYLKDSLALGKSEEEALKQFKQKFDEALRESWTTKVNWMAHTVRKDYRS
T1 sequence (P27986 whole entry partner): as the sequence (P27986 whole entry partner) above

SMILES | IC50 (PI3K β (p110β/p85α)) | IC50 (PI3K α (p110α/p85α)) | IC50 (PI3K γ (p110γ)) | IC50 (PI3K δ)
CN1CCC(Nc2cnc3ccc(-c4ccc5oc(N)nc5c4)cc3n2)CC1 [Compound 81] | < 1000 nM | < 100 nM | < 1000 nM | < 100 nM
CC(=O)N1CCC(Nc2cnc3ccc(-c4ccc5oc(N)nc5c4)cc3n2)CC1 [Compound 82] | < 10000 nM | < 100 nM | < 100 nM | < 100 nM
Nc1nc2cc(-c3ccc4ncc(C(=O)NC5CCOCC5)n4c3)ccc2o1 [Compound 83] | < 10000 nM | < 100 nM | < 100 nM | < 100 nM
CC(C)N1CCN(c2cnc3ccc(-c4ccc5oc(N)nc5c4)cc3n2)CC1 [Compound 84] | < 100 nM | < 100 nM | < 100 nM | < 1000 nM
CC(=O)N1CCN(c2cnc3ccc(-c4ccc5oc(N)nc5c4)cc3n2)CC1 [Compound 85] | < 100 nM | < 100 nM | < 100 nM | < 100 nM
CS(=O)(=O)N1CCN(c2cnc3ccc(-c4ccc5oc(N)nc5c4)cc3n2)CC1 [Compound 86] | < 1000 nM | < 100 nM | < 100 nM | < 1000 nM
CS(=O)(=O)N1CCC(Nc2ncnc3ccc(-c4ccc5oc(N)nc5c4)cc23)CC1 [Compound 87] | < 1000 nM | < 100 nM | < 100 nM | < 100 nM
Nc1nc2cc(-c3ccc4ncc(N5CCNCC5)nc4c3)ccc2o1 [Compound 88] | < 100 nM | < 100 nM | < 1000 nM | < 10000 nM
Nc1nc2cc(-c3ccc4ncnc(NC5CCN(C(=O)C6CC6)CC5)c4c3)ccc2o1 [Compound 89] | < 10000 nM | < 100 nM | < 100 nM | < 100 nM
CS(=O)(=O)CCN1CCN(c2cnc3ccc(-c4ccc5oc(N)nc5c4)cc3n2)CC1 [Compound 90] | < 1000 nM | < 100 nM | < 1000 nM | < 10000 nM
Cc1nc2ccc(-c3ccc4oc(N)nc4c3)cn2c1C(=O)N1CCN(C)CC1 [Compound 91] | > 10000 nM | > 10000 nM | > 10000 nM | > 10000 nM
Cc1nc2ccc(-c3ccc4oc(N)nc4c3)cn2c1C(=O)N1CCOCC1 [Compound 92] | > 10000 nM | > 10000 nM | > 10000 nM | > 10000 nM
CS(=O)(=O)N1CCC(Nc2cnc3ccc(-c4ccc5oc(N)nc5c4)cc3n2)CC1 [Compound 95] | < 10000 nM | < 100 nM | < 100 nM | < 100 nM
Nc1nc2cc(-c3ccc4ncc(NC5CCOCC5)nc4c3)ccc2o1 [Compound 96] | < 10000 nM | < 100 nM | < 100 nM | < 1000 nM
Nc1nc2cc(-c3ccc4ncc(C(=O)N5CCOCC5)cc4c3)ccc2o1 [Compound 97] | > 10000 nM | < 10000 nM | > 10000 nM | > 10000 nM
Nc1nc2cc(-c3ccc4ncc(N5CCS(=O)(=O)CC5)nc4c3)ccc2o1 [Compound 98] | > 10000 nM | < 100 nM | < 100 nM | > 10000 nM
Nc1nc2cc(-c3ccc4ncc(N5CCC(O)CC5)nc4c3)ccc2o1 [Compound 99] | < 10000 nM | < 100 nM | < 1000 nM | < 1000 nM
Nc1nc2cc(-c3ccc4ncc(N5CCN(CCO)CC5)nc4c3)ccc2o1 [Compound 100] | < 100 nM | < 100 nM | < 1000 nM | < 10000 nM
CC(C)N1CCC(Nc2ncnc3ccc(-c4ccc5oc(N)nc5c4)cc23)CC1 [Compound 101] | < 10000 nM | < 100 nM | < 10000 nM | < 1000 nM
CC(C)(C#N)c1ccc(Nc2ncnc3ccc(-c4ccc5oc(N)nc5c4)cc23)cc1 [Compound 102] | < 1000 nM | < 100 nM | < 100 nM | < 1000 nM
CN1CCN(C(=O)c2cnc3ccc(-c4ccc5oc(N)nc5c4)nn23)CC1 [Compound 104] | > 10000 nM | < 10000 nM | < 10000 nM | > 10000 nM
Nc1nc2cc(-c3ccc4ncc(C(=O)N5CCOCC5)n4n3)ccc2o1 [Compound 105] | < 10000 nM | < 1000 nM | < 1000 nM | > 10000 nM
C[C@@H]1CN(C(=O)c2cnc3ccc(-c4ccc5oc(N)nc5c4)cn23)C[C@H](C)O1 [Compound 106] | > 10000 nM | < 10000 nM | < 10000 nM | > 10000 nM
Nc1nc2cc(-c3ccc4ncc(-c5cnn(CCO)c5)nc4c3)ccc2o1 [Compound 108] | < 10000 nM | < 100 nM | < 100 nM | > 10000 nM
Nc1nc2cc(-c3ccc4ncc(S(=O)(=O)N5CCOCC5)n4c3)ccc2o1 [Compound 109] | > 10000 nM | > 10000 nM | > 10000 nM | > 10000 nM
